Measured values reported in publication PMC12566593, “Effects of Different Centrifugation Parameters on Equilibrium Solubility Measurements” (Methods and Protocols, 2025).
≈ marks a conversion by molar mass, not a printed value. Where two headings read alike, the source gives them in different places. Values belong to the compound of their own block, whether it stands above or below them.

Tests used:
[1] = Ionization state calculated from pKa and buffer pH; assay type: physicochemical
[2] = cited from earlier work; for Filtration: Result Range: % of reference, all filters
[3] = Equilibrium solubility, saturation shake-flask, centrifugation as phase separation; conditions: for solubility thermodynamic at 24 h / solubility thermodynamic: Britton-Robinson buffer; for solubility thermodynamic at 24 h: continuously stirred, no sedimentation; for solubility thermodynamic: pH 7.4, Equilibrium solubility S sed, sedimented before centrifugation
[4] = Equilibrium solubility, saturation shake-flask, sedimentation as phase separation (reference, standard protocol); conditions: for solubility: Britton-Robinson buffer, 6 h stirring, 18 h sedimentation, 25 °C
[5] = cited from earlier work
[6] = pH 7.4
[7] = cited from earlier work; remark: listed apart in the source

Fraction ionized ([1]; pH 2.0): about 1%
Fraction ionized ([1]; pH 4.0): around 50%
solubility thermodynamic at 24 h ([3]; 25 °C, pH 10, aqueous buffer, thermodynamic from solid, Equilibrium solubility S stir, pH 10.0, 10,000 rpm, 20 min): 11200 µg/mL
solubility thermodynamic at 24 h ([3]; pH 2, Equilibrium solubility S stir, pH 2.0, 5000 rpm, 5 min): 1.64 ± 0.04 µg/mL
solubility thermodynamic at 24 h ([3]; pH 2, Equilibrium solubility S stir, pH 2.0, 5000 rpm, 10 min): 1.52 ± 0.22 µg/mL
solubility thermodynamic at 24 h ([3]; pH 2, Equilibrium solubility S stir, pH 2.0, 5000 rpm, 20 min): 1.71 ± 0.07 µg/mL
solubility thermodynamic at 24 h ([3]; pH 2, Equilibrium solubility S stir, pH 2.0, 10,000 rpm, 5 min): 1.82 ± 0.07 µg/mL
solubility thermodynamic at 24 h ([3]; pH 2, Equilibrium solubility S stir, pH 2.0, 10,000 rpm, 10 min): 1.78 ± 0.07 µg/mL
solubility thermodynamic at 24 h ([3]; pH 2, Equilibrium solubility S stir, pH 2.0, 10,000 rpm, 20 min): 2 ± 0.13 µg/mL
solubility thermodynamic at 24 h ([3]; pH 4, Equilibrium solubility S stir, pH 4.0, 5000 rpm, 5 min): 2.7 ± 0.1 µg/mL
solubility thermodynamic at 24 h ([3]; pH 4, Equilibrium solubility S stir, pH 4.0, 5000 rpm, 10 min): 2.69 ± 0.24 µg/mL
solubility thermodynamic at 24 h ([3]; pH 4, Equilibrium solubility S stir, pH 4.0, 5000 rpm, 20 min): 2.58 ± 0.16 µg/mL
solubility thermodynamic at 24 h ([3]; pH 4, Equilibrium solubility S stir, pH 4.0, 10,000 rpm, 5 min): 2.79 ± 0.2 µg/mL
solubility thermodynamic at 24 h ([3]; pH 4, Equilibrium solubility S stir, pH 4.0, 10,000 rpm, 10 min): 2.8 ± 0.11 µg/mL
solubility thermodynamic at 24 h ([3]; pH 4, Equilibrium solubility S stir, pH 4.0, 10,000 rpm, 20 min): 2.88 ± 0.18 µg/mL
solubility thermodynamic at 24 h ([3]; pH 10, Equilibrium solubility S stir, pH 10.0, 5000 rpm, 10 min): 9810 ± 318 µg/mL
solubility thermodynamic at 24 h ([3]; pH 10, Equilibrium solubility S stir, pH 10.0, 5000 rpm, 20 min): 10700 µg/mL
solubility thermodynamic at 24 h ([3]; pH 10, Equilibrium solubility S stir, pH 10.0, 10,000 rpm, 5 min): 9660 ± 760 µg/mL
Centrifugation: Closest to Reference (100%) ([3]; pH 2.0): 100%
Centrifugation: Closest to Reference (100%) ([3]; pH 4.0): 99%
Centrifugation: Closest to Reference (100%) ([3]; pH 10.0): 98%
solubility ([4]; pH 2, Solubility (reference), pH 2.0): 1.67 ± 0.05 µg/mL
solubility ([4]; pH 10, Solubility (reference), pH 10.0): 9470 ± 327 µg/mL
Increase of solubility compared to the unionized form ([4]; pH 10.0 (fully ionized) vs unionized form): 5670 fold
SMILES: O=C(O)Cc1ccccc1Nc1c(Cl)cccc1Cl [DICL-NA, Diclofenac sodium]
Measured concentration after filtration ([2]; nylon filter, low pH values): dropped to zero
Filtration: Result Range ([2]; pH 2.0): 0–164%
Filtration: Closest to Reference (100%) ([2]; pH 2.0): 93%
Filtration: Result Range ([2]; pH 4.0): 0–103%
Filtration: Closest to Reference (100%) ([2]; pH 4.0): 103%
Filtration: Result Range ([2]; pH 10.0): 64–99%
Filtration: Closest to Reference (100%) ([2]; pH 10.0): 99%

SMILES: NS(=O)(=O)c1cc2c(cc1Cl)NCNS2(=O)=O [HCT, hydrochlorothiazide]
Fraction in dianionic form ([1]; pH 8.8): 4%
Fraction monoanionic ([1]; pH 8.8): 51%
Fraction unionized ([1]; pH 8.8): 45%
Filtration: Result Range ([2]; pH 6.0): 83–103%
Filtration: Closest to Reference (100%) ([2]; pH 6.0): 102%
Filtration: Result Range ([2]; pH 8.8): 75–100%
Filtration: Closest to Reference (100%) ([2]; pH 8.8): 100%
Filtration: Result Range ([2]; pH 11.0): 65–119%
Filtration: Closest to Reference (100%) ([2]; pH 11.0): 100%
pKa ([5]; first pKa for HCT): 8.75
pKa (second value) ([5]; second pKa of the diprotic acid): 9.96

Centrifugation: Closest to Reference (100%) [6]: 121%
Centrifugation: Result Range [6]: 121–148%
solubility thermodynamic ([3]; pH 7.4, 5000 rpm, 5 min): 10.9 ± 0.09 µg/mL (≈ 34.7 µM)
solubility thermodynamic ([3]; pH 7.4, 5000 rpm, 10 min): 10.9 ± 0.09 µg/mL (≈ 34.7 µM)
solubility thermodynamic ([3]; pH 7.4, 5000 rpm, 20 min): 11.5 ± 0.06 µg/mL (≈ 36.6 µM)
solubility thermodynamic ([3]; pH 7.4, 10,000 rpm, 5 min): 11 ± 0.12 µg/mL (≈ 35 µM)
solubility thermodynamic ([3]; pH 7.4, 10,000 rpm, 10 min): 11.6 ± 0.11 µg/mL (≈ 36.9 µM)
solubility thermodynamic ([3]; pH 7.4, 10,000 rpm, 20 min): 12.4 ± 0.06 µg/mL (≈ 39.4 µM)
solubility thermodynamic at 24 h ([3]; pH 7.4, Equilibrium solubility S stir, pH 7.4, 5000 rpm, 5 min): 11 ± 0.06 µg/mL (≈ 35 µM)
solubility thermodynamic at 24 h ([3]; pH 7.4, Equilibrium solubility S stir, pH 7.4, 5000 rpm, 10 min): 11.3 ± 0.14 µg/mL (≈ 35.9 µM)
solubility thermodynamic at 24 h ([3]; pH 7.4, Equilibrium solubility S stir, pH 7.4, 5000 rpm, 20 min): 12.8 ± 0.05 µg/mL (≈ 40.7 µM)
solubility thermodynamic at 24 h ([3]; pH 7.4, Equilibrium solubility S stir, pH 7.4, 10,000 rpm, 5 min): 11 ± 0.18 µg/mL (≈ 35 µM)
solubility thermodynamic at 24 h ([3]; pH 7.4, Equilibrium solubility S stir, pH 7.4, 10,000 rpm, 10 min): 11.7 ± 0.14 µg/mL (≈ 37.2 µM)
solubility thermodynamic at 24 h ([3]; pH 7.4, Equilibrium solubility S stir, pH 7.4, 10,000 rpm, 20 min): 13.3 ± 0.2 µg/mL (≈ 42.3 µM)
Increase in measured solubility caused by centrifugation ([3]; vs reference, pH 7.4): at least 20%
solubility ([4]; pH 7.4, Solubility (reference), pH 7.4): 8.98 ± 0.09 µg/mL (≈ 28.6 µM)
SMILES: CC(=O)[C@H]1CC[C@H]2[C@@H]3CCC4=CC(=O)CC[C@]4(C)[C@H]3CC[C@]12C [PROG, progesterone]
Filtration: Result Range ([2]; pH 7.4): 55–98%
Filtration: Closest to Reference (100%) ([2]; pH 7.4): 98%
logP [7]: 3.48
